Experimental data published in US20040082479A1, “Method for soil sterilization from pathogens” (priority 2001, published 2004).

Legend:
[1] = tested on: Rhizoctonia solani; assay: Diseased bean plants (Phaseolus vulgaris L.) grown in Rhizoctonia solani contaminated soil pre-treated with allicin; format: in vivo
Method: (§1) Pure allicin in aqueous solution at 2 mg/ml was obtained as previously described in International PCT Publication WO 97/39115, following the interaction of synthetic, nature-identical alliin (allylcysteine sulfoxide) with a preparation of stabilized garlic alliinase. Fungal plant pathogens were grown in soil as previously described (Ko et al, 1971). Contamination of soil with Rhizoctonia solani and infection of bean seedlings was determined as previously reported (Chet, 1987).
Boxes with raw red-brown, sandy loam soil (0.5 Kg) 1.0 were precontaminated with viable Rhizoctonia solani. The fungi-contaminated soil in the boxes were subsequently irrigated with aqueous solutions (30 ml/box) containing different concentrations of allicin (A: 0.31 mg allicin/ml; B: 0.62 mg allicin/ml; C: 0.94 mg allicin/ml; D: 1.25 mg allicin/ml). Irrigations were repeated 3 times, with 3 days intervals between treatments. Controls were irrigated with similar volumes of water. Four soil replicates were irrigated for each allicin concentration as well as for the control. Following each irrigation step, the soil boxes were closed in nylon bags. Four days after the last irrigation, the bags were opened and the boxes with the soil ventilated for 5 more days.
Bean seeds (Phaseolus vulgaris L.) (10/box) were then planted in each of the boxes and the growth and development of disease in the plants was determined after 14 days. As shown in Table 2 and FIGS. 1-2, black columns, 86% of the control plants became diseased whereas in soil pre-irrigated with 0.94 (FIGS. 1-2, C) and 1.25 (FIGS. 1-2, D) mg/ml allicin, less than 20% of the plants became diseased (decrease of >80% in diseased plants, FIG. 2). The effect of allicin was dose-dependent and at the lowest concentration tested (0.31 mg allicin/ml), the decrease in the number of diseased plants was only 14% (Table 2 and FIGS. 1-2, black columns).
In order to test the time length efficacy of soil that was pre-treated with allicin, an additional experiment was done in the same soil boxes. After the first cycle of the bean growth experiment for 14 days described above, the plants were removed and a second cycle of bean growth was conducted whereby a new set of bean seeds was immediately seeded in the same soil boxes and the development of disease in the plants grown in this second cycle was determined after 14 days. The results are shown in Table 2 and in FIGS. 1-2, gray columns. […] Some protection (33%) was also observed in soils irrigated with 0.94 mg allicin/ml (C).

[2] = tested on: Rhizoctonia solani Kuhn; assay: Linear (radial) growth of fungi in vitro on potato dextrose agar with allicin; format: cell-based; settings: PDA; for Linear growth, mm radius of growth: 0.1 ml allicin solution 2 mg/ml; for Effect on growth of the fungus (in words): in vitro
Method: as §1
(§2) The effect of allicin on the growth of a number of known soil fungal pathogens was examined in vitro. Fungi were innoculated in Petri dishes containing potato dextrose agar (PDA, Difco) and the radial growth rate of the fungi was measured every 24 hours. The effect of the addition of 0.1 ml of a solution of allicin (2.0 mg/ml) on the radial growth rate of the pathogen was determined after 24, 48, 72 and 96 hours.

[3] = tested on: Trichoderma hurzianum; assay: as above; format: cell-based; settings: PDA; for Linear growth, mm radius of growth: 0.1 ml allicin solution 2 mg/ml; for Effect on growth of the fungus (in words): in vitro
Method: as §1, §2

[4] = tested on: Sclerotinia sclerotiorum; assay: as above; format: cell-based; settings: PDA; for Linear growth, mm radius of growth: 0.1 ml allicin solution 2 mg/ml; for Effect on growth of the fungus (in words): in vitro
Method: as §1, §2

[5] = tested on: Sclerotium Rolfsii Sacc.; assay: as above; format: cell-based; settings: PDA; for Linear growth, mm radius of growth: 0.1 ml allicin solution 2 mg/ml; for Effect on growth of the fungus (in words): in vitro
Method: as §1, §2

[6] = tested on: Fusarium oxysporum f. sp. vasinfectum; assay: as above; format: cell-based; settings: PDA; for Linear growth, mm radius of growth: 0.1 ml allicin solution 2 mg/ml; for Effect on growth of the fungus (in words): in vitro
Method: as §1, §2

C=CCS[S+]([O-])CC=C (stereo not shown) [Allicin, thio-2-propene-1-sulfinic acid S-allyl ester]
Diseased Plants (%) ([1]; First Cycle (14 days after planting), treatment A: 0.31 mg allicin/ml (30 ml), 3 irrigations, 0.5 Kg soil): 74% | Diseased Plants (%) ([1]; First Cycle (14 days after planting), treatment B: 0.62 mg allicin/ml (30 ml), 3 irrigations, 0.5 Kg soil): 39% | Diseased Plants (%) ([1]; First Cycle (14 days after planting), treatment C: 0.94 mg allicin/ml (30 ml), 3 irrigations, 0.5 Kg soil): 16% | Diseased Plants (%) ([1]; First Cycle (14 days after planting), treatment C: 0.94 mg allicin/ml (30 ml), 3 irrigations, 0.5 Kg soil, listed as allicin): less than 20% | Diseased Plants (%) ([1]; First Cycle (14 days after planting), treatment D: 1.25 mg allicin/ml (30 ml), 3 irrigations, 0.5 Kg soil): 18% | Diseased Plants (%) ([1]; First Cycle (14 days after planting), treatment D: 1.25 mg allicin/ml (30 ml), 3 irrigations, 0.5 Kg soil, listed as allicin): less than 20% | Diseased Reduction (%) ([1]; First Cycle, treatment A: 0.31 mg allicin/ml (30 ml)): 14% | Diseased Reduction (%) ([1]; First Cycle, treatment B: 0.62 mg allicin/ml (30 ml)): 55% | Diseased Reduction (%) ([1]; First Cycle, treatment C: 0.94 mg allicin/ml (30 ml)): 81% | Diseased Reduction (%) ([1]; First Cycle, treatment C: 0.94 mg allicin/ml (30 ml), listed as allicin): > 80% | Diseased Reduction (%) ([1]; First Cycle, treatment D: 1.25 mg allicin/ml (30 ml)): 90% | Diseased Reduction (%) ([1]; First Cycle, treatment D: 1.25 mg allicin/ml (30 ml), listed as allicin): > 80% | Diseased Plants (%) ([1]; Second Cycle (14 days after replanting), treatment A: 0.31 mg allicin/ml (30 ml)): 90% | Diseased Plants (%) ([1]; Second Cycle (14 days after replanting), treatment A: 0.31 mg allicin/ml (30 ml), listed as allicin): almost identical to that of the controls | Diseased Plants (%) ([1]; Second Cycle (14 days after replanting), treatment B: 0.62 mg allicin/ml (30 ml)): 80% | Diseased Plants (%) ([1]; Second Cycle (14 days after replanting), treatment B: 0.62 mg allicin/ml (30 ml), listed as allicin): almost identical to that of the controls | Diseased Plants (%) ([1]; Second Cycle (14 days after replanting), treatment C: 0.94 mg allicin/ml (30 ml)): 60% | Diseased Plants (%) ([1]; Second Cycle (14 days after replanting), treatment D: 1.25 mg allicin/ml (30 ml)): 30% | Diseased Reduction (%) ([1]; Second Cycle, treatment A: 0.31 mg allicin/ml (30 ml)): 0% | Diseased Reduction (%) ([1]; Second Cycle, treatment B: 0.62 mg allicin/ml (30 ml)): 11% | Diseased Reduction (%) ([1]; Second Cycle, treatment C: 0.94 mg allicin/ml (30 ml)): 33% | Diseased Reduction (%) ([1]; Second Cycle, treatment D: 1.25 mg allicin/ml (30 ml)): 66% | Linear growth, mm radius of growth ([2]; 24 hrs): 2.5 mm | Linear growth, mm radius of growth ([2]; 48 hrs): 7.5 mm | Linear growth, mm radius of growth ([2]; 72 hrs): 15 mm | Effect on growth of the fungus (in words) [2]: Very significant inhibition of growth | Linear growth, mm radius of growth ([3]; 24 hrs): 2.5 mm | Linear growth, mm radius of growth ([3]; 48 hrs): 7.5 mm | Linear growth, mm radius of growth ([3]; 72 hrs): 22.5 mm | Effect on growth of the fungus (in words) [3]: Very significant inhibition of growth | Linear growth, mm radius of growth ([4]; 24 hrs): 0.5 mm | Linear growth, mm radius of growth ([4]; 48 hrs): 7.5 mm | Linear growth, mm radius of growth ([4]; 72 hrs): 20 mm | Linear growth, mm radius of growth ([4]; 96 hrs): 45 mm | Effect on growth of the fungus (in words) [4]: Very significant inhibition of growth | Linear growth, mm radius of growth ([5]; 24 hrs): 0 mm | Linear growth, mm radius of growth ([5]; 48 hrs): 2.5 mm | Linear growth, mm radius of growth ([5]; 72 hrs): 15 mm | Effect on growth of the fungus (in words) [5]: Very significant inhibition of growth | Linear growth, mm radius of growth ([6]; 24 hrs): 2.5 mm | Linear growth, mm radius of growth ([6]; 48 hrs): 7.5 mm | Linear growth, mm radius of growth ([6]; 72 hrs): 12.5 mm | Linear growth, mm radius of growth ([6]; 96 hrs): 15 mm | Effect on growth of the fungus (in words) [6]: Very significant inhibition of growth

allylcysteine sulfoxide [alliin, reference compound]
Effect on growth of the fungus (in words) [2]: no effect | Effect on growth of the fungus (in words) [3]: no effect | Effect on growth of the fungus (in words) [4]: no effect | Effect on growth of the fungus (in words) [5]: no effect | Effect on growth of the fungus (in words) [6]: no effect
